These results are taken from patent publication US9308270B2, “Pharmaceutical composition on the basis of nanomicelles containing epigallocatechin gallate and a method of administration thereof to treat atopic dermatitis, Crohn's disease, adenomyosis, and hyperplastic diseases of the prostate gland” (NORDIC LABS LIMITED, priority 2011, dated 2016).

A short description of data set [1]: Pharmacokinetic study of EGCG in rat plasma after peroral administration. The conditions noted are these: for AUC0-24 hr / Cmax: rat plasma. The format is in vivo. As to the method:
Experiments were conducted on laboratory rats of Sprague-Dawley breed weighing between 250 g and 350 g. All studies on animals were conducted in accordance with “Guidelines for Care and Use of Experimental Animals,” […] At fixed time intervals (10 and 30 minutes, 1, 1.5, 2, 3, 8, and 24 hours), blood samples were drawn from the animals and, following centrifuging, plasma was drawn from the samples for analysis, refrigerated, and kept at −80° C. until it was needed for studies. For analytical studies to be conducted, the plasma samples were unfrozen, centrifuged, and divided into aliquots of 0.1 ml each. The samples were extracted three times in 2 ml of ethyl acetate for 5 minutes at constant shaking. Following extraction, the samples were centrifuged at 1,000 r.p.m. for 10 minutes. The supernatant was separated and placed in a glass tube.

A short description of data set [2]: Dependence of EGCG concentration in rat plasma on dose. The format is in vivo. The conditions noted are these: different doses, FIG. 2.
Another data set deals with rats. The data set is described as follows: Toxicity observed in the rat pharmacokinetic study. The class given is in vivo. The note with it: peroral, maximum dose 2,500 mg/kg (G-1), without formulation. As to the method:
At fixed time intervals (10 and 30 minutes, 1, 1.5, 2, 3, 8, and 24 hours), blood samples were drawn from the animals and, following centrifuging, plasma was drawn from the samples for analysis, refrigerated, and kept at −80° C. until it was needed for studies.

The conditions of data set [3]: cited from earlier work.

Bounds are passed on as bounds.

What is called Cmax is the highest concentration seen after dosing. In data set [1] (500 mg/kg), epigallocatechin-3-gallate [EGCG] registered an AUC0-24 hr of 49.23 ± 4.95 µg·h/mL and a Cmax of 10650 ± 1140 ng/mL. In data set [1] (2.5 g/kg (G-1)), this substance displayed an AUC0-24 hr of 179.2 ± 54.33 µg·h/mL and a Cmax of 58600 ± 22400 ng/mL. In data set [1] (rat, 100 mg/kg (G-5)), the “EGCG concentration level in plasma” value is listed as “below LOQ”. The “dependence of EGCG concentration in rat plasma on dose” value in data set [2] is “nonlinear pattern and reached a plateau at the 500 mg/kg dose”. Besides, the toxicity entry in the data set with rats is listed as “toxic to the animals”. The “EGCG concentration in human plasma” value in data set [3] (maximum possible tea drinking during the day) was 326 ng/mL. In addition, in data set [3] (patients taking preparations containing green tea catechins), the “maximum concentration of EGCG in plasma” value is listed as at most 1 μm.
